Data published in patent publication CN108159055A, “治疗乳腺癌的长效递药系统、其制备方法及应用” (XI'AN LIBANG MEDICINE SCIENCE AND TECHNOLOGY Co Ltd, priority 2018, dated 2018).

Experiment: Miscibility of solvents with oils (Test Example 2 part 1, Table 2)
Assay type: physicochemical
Details: no phospholipid

CC(=O)OCC(COC(C)=O)OC(C)=O.CC(=O)OCC(COC(C)=O)OC(C)=O [三乙酸甘油酯]
miscibility (with benzyl alcohol): 混溶
miscibility (with benzyl benzoate): 混溶
miscibility (with ethanol): 不混溶
miscibility (with ethyl lactate): 不混溶
